The values that follow come from article PMC7037947, “Novel ACE Inhibitory Peptides Derived from Simulated Gastrointestinal Digestion in Vitro of Sesame (Sesamum indicum L.) Protein and Molecular Docking Study” (International Journal of Molecular Sciences, 2020).

Assay [1] addresses T1, Angiotensin Converting Enzyme (ACE) from rabbit lung (Oryctolagus cuniculus, UniProt P12822).
T1 construct: Angiotensin Converting Enzyme (ACE) from rabbit lung; purchased Sigma-Aldrich (St. Louis, MO, USA); host or cells: rabbit lung (tissue-derived)
T1 sequence (P12822 34-1310): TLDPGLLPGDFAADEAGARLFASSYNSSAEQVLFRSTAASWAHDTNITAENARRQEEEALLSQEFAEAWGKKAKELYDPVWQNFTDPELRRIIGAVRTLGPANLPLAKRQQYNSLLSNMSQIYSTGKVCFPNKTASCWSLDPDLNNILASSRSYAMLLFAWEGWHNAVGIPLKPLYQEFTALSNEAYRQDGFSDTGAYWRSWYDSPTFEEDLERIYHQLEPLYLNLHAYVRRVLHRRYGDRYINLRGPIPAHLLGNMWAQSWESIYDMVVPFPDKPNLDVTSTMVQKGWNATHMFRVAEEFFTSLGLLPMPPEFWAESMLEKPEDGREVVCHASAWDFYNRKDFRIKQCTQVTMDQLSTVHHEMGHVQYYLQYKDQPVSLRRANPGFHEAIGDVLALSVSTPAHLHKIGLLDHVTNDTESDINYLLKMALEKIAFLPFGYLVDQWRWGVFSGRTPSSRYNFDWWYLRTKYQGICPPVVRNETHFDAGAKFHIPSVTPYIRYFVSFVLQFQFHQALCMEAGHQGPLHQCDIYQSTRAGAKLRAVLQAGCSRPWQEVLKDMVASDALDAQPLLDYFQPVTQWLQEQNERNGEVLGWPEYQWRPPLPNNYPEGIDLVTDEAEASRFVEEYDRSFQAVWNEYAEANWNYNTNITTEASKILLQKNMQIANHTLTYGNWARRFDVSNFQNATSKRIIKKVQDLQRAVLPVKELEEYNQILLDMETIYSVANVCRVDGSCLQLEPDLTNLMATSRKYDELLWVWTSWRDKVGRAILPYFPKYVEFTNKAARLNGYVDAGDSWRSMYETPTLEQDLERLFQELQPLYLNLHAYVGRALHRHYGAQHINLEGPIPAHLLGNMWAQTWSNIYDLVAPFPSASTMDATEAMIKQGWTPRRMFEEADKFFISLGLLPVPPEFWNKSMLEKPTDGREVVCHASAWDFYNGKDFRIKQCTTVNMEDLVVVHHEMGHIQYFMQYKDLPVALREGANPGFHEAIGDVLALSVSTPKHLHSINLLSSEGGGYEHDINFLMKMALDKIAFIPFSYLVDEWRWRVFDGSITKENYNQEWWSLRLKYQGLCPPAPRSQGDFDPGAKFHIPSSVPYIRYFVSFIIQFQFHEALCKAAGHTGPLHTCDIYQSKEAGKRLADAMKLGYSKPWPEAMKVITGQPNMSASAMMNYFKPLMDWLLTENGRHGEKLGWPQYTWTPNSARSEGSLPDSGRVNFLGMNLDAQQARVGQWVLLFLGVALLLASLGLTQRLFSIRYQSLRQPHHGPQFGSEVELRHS
As to the kind of experiment: ACE inhibitory activity assay (HHL substrate, OPA fluorescence). The class given is biochemical. Particulars: chemically synthesized peptides identified from peak 4; mean ± SD, n = 3; read-out: IC50 Value inhibiting ACE activity. From the text:
White sesame (Sesamum indicum L.) seeds were purchased from China Oil and Foodstuffs Corporation (Beijing, China). […] Pepsin (3000-3500 NFU/g), trypsin (250.N.F.U/mg), and α-chymotrypsin (1200 u/mg) were obtained from Solarbio Science and Technology Co., Ltd. (Beijing, China). Nanofiltration and ultrafiltration membranes were purchased from Rising Sun Membrane Technology Co., Ltd. (Beijing, China). All other reagents used in this study were of analytical grade. The ACE inhibitory activity was measured by using cary eclipse fluorescence spectrophotometer (Agilent Technologies Australia Pty Ltd., Mulgrave, Australia) according to a modified method of Li et al.. The sample was dissolved by distilled water to the appropriate concentration and the 96-well plate was used as the reaction vessel. Briefly, 30 μL of HHL substrate containing 0.3 mol/L NaCl in 50 mM borate buffer (pH 8.3) and 15 μL of samples were mixed. […] The reaction was stopped by using 125 μL of 1.2 mol/L NaOH. Finally, 30 μL of methanol solution containing 2% OPA was added, mixed evenly, and then stood at room temperature for 20 min. The derivative reaction was terminated by adding 40 μL of 6 mol/L HCl. The reaction solution was diluted 10 times and added into the fluorescence cell. The fluorescence absorption intensity was measured within 30–90 min. […] All assays were performed in triplicate. ACE inhibitory activity was calculated by using the following equation:ACE inhibitory activity (%) = [1 − (a−c)/(b−d)] × 100(2) where a is the fluorescence absorption intensity in the presence of both ACE and inhibitor, b is the fluorescence absorption intensity in the presence of ACE but not inhibitor, c is the fluorescence absorption intensity in the presence of inhibitor but not ACE, d is the fluorescence absorption intensity in the absence of both ACE and inhibitor.

The subject of another assay is ACE. Details: method as in doi:10.1007/s10989-015-9471-y. As to conditions: peptide from sesame protein hydrolyzed by alcalase, ref [20], cited from earlier work.
In assay [2] the target is T2, Angiotensin Converting Enzyme (ACE) from rabbit lung (rabbit) (UniProt P12822).
T2 sequence: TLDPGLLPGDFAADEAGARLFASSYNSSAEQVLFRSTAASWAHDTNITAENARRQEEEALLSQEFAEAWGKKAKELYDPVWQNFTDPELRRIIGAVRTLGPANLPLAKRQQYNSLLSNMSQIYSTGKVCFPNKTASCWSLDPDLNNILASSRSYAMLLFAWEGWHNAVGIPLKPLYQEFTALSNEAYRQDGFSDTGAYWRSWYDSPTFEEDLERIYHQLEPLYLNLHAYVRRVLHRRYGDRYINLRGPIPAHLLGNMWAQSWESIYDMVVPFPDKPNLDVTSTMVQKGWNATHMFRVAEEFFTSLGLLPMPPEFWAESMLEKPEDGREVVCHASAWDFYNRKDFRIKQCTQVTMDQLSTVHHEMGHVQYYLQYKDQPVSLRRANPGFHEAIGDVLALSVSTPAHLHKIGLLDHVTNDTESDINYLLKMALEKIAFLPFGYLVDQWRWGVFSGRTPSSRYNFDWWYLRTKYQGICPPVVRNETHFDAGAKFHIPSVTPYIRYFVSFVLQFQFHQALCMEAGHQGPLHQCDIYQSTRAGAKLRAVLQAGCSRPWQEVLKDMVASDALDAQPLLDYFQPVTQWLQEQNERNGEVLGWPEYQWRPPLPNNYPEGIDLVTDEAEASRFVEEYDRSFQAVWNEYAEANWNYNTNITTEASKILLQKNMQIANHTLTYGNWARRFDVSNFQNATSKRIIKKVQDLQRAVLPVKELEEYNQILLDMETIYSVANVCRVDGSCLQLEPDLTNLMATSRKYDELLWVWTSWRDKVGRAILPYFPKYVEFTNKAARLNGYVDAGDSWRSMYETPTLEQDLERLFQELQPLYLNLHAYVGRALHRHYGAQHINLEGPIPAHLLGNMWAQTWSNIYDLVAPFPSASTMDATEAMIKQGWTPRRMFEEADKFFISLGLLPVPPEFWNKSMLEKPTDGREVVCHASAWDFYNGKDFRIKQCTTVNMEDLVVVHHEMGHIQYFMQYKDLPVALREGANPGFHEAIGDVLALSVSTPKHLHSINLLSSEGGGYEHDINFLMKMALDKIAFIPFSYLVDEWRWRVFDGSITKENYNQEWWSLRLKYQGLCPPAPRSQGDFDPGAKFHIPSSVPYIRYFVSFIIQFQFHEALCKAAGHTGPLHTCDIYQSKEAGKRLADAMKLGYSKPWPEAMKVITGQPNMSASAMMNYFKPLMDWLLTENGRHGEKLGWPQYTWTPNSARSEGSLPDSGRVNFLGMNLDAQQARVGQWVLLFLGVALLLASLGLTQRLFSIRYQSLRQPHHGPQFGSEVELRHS

Ends that are not written are not given here.

For orientation: IC50 means the midpoint of a concentration-inhibition curve.

Take AFPAGAAHW: the IC50 in assay [1] came to 29 ± 0.2 µM.

HIITLGR [HIITLGR]: the IC50 in assay [1] is 74.65 ± 0.13 µM.

As for INTLSGR [INTLSGR], in assay [1], the 50% inhibitory concentration (IC50) worked out at 149.6 ± 0.33 µM.

Regarding MPGVPGPIQR, the IC50 in assay [1] was 54.79 ± 0.37 µM.

For LAGNPAGR, the IC50 in assay [1] amounted to 148.4 ± 0.35 µM.

Turning to PNYHPSPR, the IC50 in assay [1] came to 19 ± 0.26 µM.

Consider HIGNILSL, for which the IC50 in assay [1] came to 36.69 ± 0.33 µM.

Consider GHIITVAR, for which, in assay [1], the IC50 came to 3.6 ± 0.1 µM.

Regarding AGALGDSVTVTR, the IC50 in assay [1] came out at 68.49 ± 0.14 µM.

As for YAHYSYA, the “IC50 value, ACE inhibition” value in the assay on ACE is 600 µg/mL. For the same molecule, the IC50 in the assay with ACE (read-out: IC50 value, ACE inhibition) is 687 µM.

FMPGVPGPIQR: in assay [1], the IC50 turned out to be 11.1 ± 0.15 µM.

Consider AFPAGAAHW, for which the IC50 of ACE inhibitory activity (enzyme activity on HHL substrate, OPA fluorescence, 37 °C, pH 8.3) in assay [2] is 29 μM.

LAGNPAGR: the IC50 of ACE inhibitory activity (enzyme activity on HHL substrate, OPA fluorescence, 37 °C, pH 8.3) in assay [2] was determined as 148 μM.

Consider INTLSGR, for which the IC50 of ACE inhibitory activity (enzyme activity on HHL substrate, OPA fluorescence, 37 °C, pH 8.3) in assay [2] amounted to 150 μM.

In assay [2], HIGNILSL yielded an IC50 of ACE inhibitory activity (enzyme activity on HHL substrate, OPA fluorescence, 37 °C, pH 8.3) of 36.7 μM.

For the molecule MPGVPGPIQR, the IC50 of ACE inhibitory activity (enzyme activity on HHL substrate, OPA fluorescence, 37 °C, pH 8.3) in assay [2] amounted to 54.8 μM.

HIITLGR gave an IC50 of ACE inhibitory activity (enzyme activity on HHL substrate, OPA fluorescence, 37 °C, pH 8.3) in assay [2] of 74.7 μM.

Molecule FMPGVPGPIQR came in with an IC50 of ACE inhibitory activity (enzyme activity on HHL substrate, OPA fluorescence, 37 °C, pH 8.3) in assay [2] of 11.1 μM.

Take AGALGDSVTVTR: in assay [2], the IC50 of ACE inhibitory activity (enzyme activity on HHL substrate, OPA fluorescence, 37 °C, pH 8.3) was 68.5 μM.

For the molecule PNYHPSPR, the IC50 of ACE inhibitory activity (enzyme activity on HHL substrate, OPA fluorescence, 37 °C, pH 8.3) in assay [2] was found to be 19 μM.

The molecule GHIITVAR gave an IC50 of ACE inhibitory activity (enzyme activity on HHL substrate, OPA fluorescence, 37 °C, pH 8.3) in assay [2] of 3.6 μM.
